Tests used:
[1] = tested on: ATP3 (DNA, aptamer) ACCTGGGGGAGTATTGCGGAGGAAGGT; assay: ITC, two-site cooperative fit; conditions: Na+ (120 mM NaCl), 10 mM sodium acetate pH 5.5, 20 °C, site 1 of 2
[2] = tested on: ATP10 (DNA, aptamer, inosine at 9 (G9I)) ACCTGGGGGAGTATTGCGGAGGAAGGT; assay: ITC, one-site fit; conditions: Na+ (120 mM NaCl); 10 mM sodium acetate pH 5.5, 20 °C
[3] = tested on: Apt1d-GC2 (DNA, aptamer) TTCGGGGCGTATTGCGCAGGAA; assay: ITC; conditions: Na+ (100 mM NaCl), Mg2+ (2 mM MgCl2); 10 mM HEPES pH 7.6, 20 °C; 100 µM DNA
[4] = tested on: ATP7 (DNA, aptamer) ACCTGGGCGCGGGAGTATTGCGGAGCGAGGAAGGT; assay: ITC, two independent sites fit; conditions: Na+ (120 mM NaCl); 10 mM sodium acetate pH 5.5, 20 °C; 100 µM DNA; site 1 of 2
[5] = tested on: ATP3 (DNA, aptamer) ACCTGGGGGAGTATTGCGGAGGAAGGT; assay: UV melting, 260 nm; conditions: Na+ (120 mM NaCl); 10 mM sodium acetate pH 5.5; 95% ligand-bound; derived from two Tm (45.2 ± 0.5, 44.2 ± 1.5)
[6] = tested on: ATP17 (DNA, aptamer) ACCTGGGCGGGGAGTATTGCGGACGAGGAAGGT; assay: ITC, two-site cooperative fit; conditions: Na+ (120 mM NaCl); 10 mM sodium acetate pH 5.5, 20 °C; 100 µM DNA; site 1 of 2
[7] = tested on: ATP7 (DNA, aptamer) ACCTGGGCGCGGGAGTATTGCGGAGCGAGGAAGGT; assay: UV melting, 260 nm; conditions: Na+ (120 mM NaCl); 10 mM sodium acetate pH 5.5; 95% ligand-bound; derived from two Tm (55.6 ± 0.5, 55.8 ± 0.6)
[8] = tested on: Apt1d (DNA, aptamer) TTCGGGGAGTATTGCGGAGGAA; assay: ITC; conditions: Na+ (100 mM NaCl), Mg2+ (2 mM MgCl2); 10 mM HEPES pH 7.6, 20 °C; 100 µM DNA
[9] = tested on: ATP9 (DNA, aptamer, inosine at 22 (G22I)) ACCTGGGGGAGTATTGCGGAGGAAGGT; assay: ITC, one-site fit; conditions: Na+ (120 mM NaCl); 10 mM sodium acetate pH 5.5, 20 °C
[10] = tested on: Apt1d-GC1 (DNA, aptamer) TTCGGGGAGTATTGCGCAGGAA; assay: ITC; conditions: Na+ (100 mM NaCl), Mg2+ (2 mM MgCl2); 10 mM HEPES pH 7.6, 20 °C; 100 µM DNA

Nc1ncnc2c1ncn2[C@@H]1O[C@H](CO)[C@@H](O)[C@H]1O
Kd1 ([1]; average of fits at 10-100 µM aptamer): 25 ± 15 µM
affinity [2]: 188 ± 37 µM
binding [3]: no
Kd1 [4]: 1.3 ± 0.5 µM
melting temperature change (ΔTm, bound minus free) [5]: -1.0 °C
Kd1 [6]: 44 ± 8 µM
melting temperature change (ΔTm, bound minus free) [7]: 0.2 °C
binding [8]: yes
affinity [9]: 212 ± 69 µM
binding [10]: no

Nc1ncnc2c1ncn2[C@@H]1O[C@H](COP(=O)(O)O)[C@@H](O)[C@H]1O
Kd1 ([1]; 70 µM DNA): 86 ± 26 µM

Nc1ncnc2c1ncn2[C@@H]1O[C@H](COP(=O)(O)OP(=O)(O)O)[C@@H](O)[C@H]1O
Kd1 ([1]; 70 µM DNA): 101 ± 33 µM

Nc1ncnc2c1ncn2[C@@H]1O[C@H](COP(=O)(O)OP(=O)(O)OP(=O)(O)O)[C@@H](O)[C@H]1O
Kd1 ([1]; 70 µM DNA): 133 ± 55 µM

From article PMC7609719 (2020)
